# In US12351570B2 (MERCK PATENT GMBH, priority 2018, dated 2025):
# System: MDA-MB-231 cells
# Experiment: Extracellular lactate production inhibition after 4 h, MDA-MB-231
# Conditions: Homo sapiens, MDA-MB-231
# Protocol: Extracellular Lactate Production Inhibition after 4 h
# Cells were plated in growth media supplemented with 10% FBS, followed by overnight recovery at 37° C., 5% CO2. […] Plates were then moved for 4 h incubation at 37° C., 5% CO2 with subsequent 20 μl media transfer to empty 384-well transparent plates. […] Plates were short-spun and measured kinetically in absorbance mode (530 nm, 12 min measurement time with 2-minute intervals between subsequent readouts at 30° C.). Differences in the signal between T8 min and T0min were normalized to vehicle (cells w/ 0.25% DMSO) and quasi-positive (LCIS buffer w/ 0.25% DMSO) controls and plotted against logarithmically-transformed test compound concentrations with fitting the 4-parameter model in GraphPad Prism software.
row,SMILES,IC50 [nM]
1,"Cn1ccc2c(S(=O)(=O)Nc3ccccc3C#Cc3ccc(C(=O)O)nc3)cccc21 [Compound 303, 5-{2-[2-(1-methyl-1H-indole-4-sulfonamido)phenyl]ethynyl}pyridine-2-carboxylic acid]",100 to 1000
2,"COc1ccc(S(=O)(=O)Nc2ccc(F)cc2C#Cc2ccc(C(=O)O)cc2)c2ccccc12 [Compound 25, 4-{2-[5-fluoro-2-(4-methoxynaphthalene-1-sulfonamido)phenyl]ethynyl}benzoic acid]",100 to 1000
3,"Cc1ccc2cccnc2c1S(=O)(=O)Nc1c(F)cccc1C#Cc1ccc(C(=O)O)nc1 [Compound 106, 5-{2-[3-fluoro-2-(7-methylquinoline-8-sulfonamido)phenyl]ethynyl}pyridine-2-carboxylic acid]",1000 to 100000
4,"COC(=O)c1ncc(C#Cc2cc(F)ccc2NS(=O)(=O)c2c(C)ccc3cccnc23)cc1C [Compound 312, methyl 5-{2-[5-fluoro-2-(7-methylquinoline-8-sulfonamido)phenyl]ethynyl}-3-methylpyridine-2-carboxylate]",1000 to 100000
5,"O=C(O)c1ccc(C#Cc2ccccc2C[S+]([O-])c2ccc3ccccc3c2)cc1 (centres unmarked) [Compound 20, 4-(2-{2-[(naphthalene-2-sulfinyl)methyl]phenyl}ethynyl)benzoic acid]",1000 to 100000
6,"O=C(O)c1ccc(C#Cc2ccccc2NS(=O)(=O)c2ccc3ccccc3c2)cc1F [Compound 14, 2-fluoro-4-{2-[2-(naphthalene-2-sulfonamido)phenyl]ethynyl}benzoic acid]",100 to 1000
7,"COc1ccc(S(=O)(=O)Nc2ccccc2C#Cc2cnc(C(=O)O)c3ccccc23)c2ncccc12 [Compound 209, 4-{2-[2-(5-methoxyquinoline-8-sulfonamido)phenyl]ethynyl}isoquinoline-1-carboxylic acid]",100 to 1000
8,"COc1ccc(S(=O)(=O)N(C)c2ccccc2C#Cc2ccc(C(=O)O)nc2)c2ncccc12 [Compound 175, 5-{2-[2-(N-methyl5-methoxyquinoline-8-sulfonamido)phenyl]ethynyl}pyridine-2-carboxylic acid]",1000 to 100000
9,"COCCOC(=O)c1ccc(C#Cc2ccccc2NS(=O)(=O)c2c(C)ccc3cccnc23)cn1 [Compound 410, 2-methoxyethyl 5-{2-[2-(7-methylquinoline-8-sulfonamido)phenyl]ethynyl}pyridine-2-carboxylate]",100 to 1000
10,"Cc1cc(C(=O)O)ncc1C#Cc1ccccc1NS(=O)(=O)c1cccc2ccccc12 [Compound 88, 4-methyl-5-{2-[2-(naphthalene-1-sulfonamido)phenyl]ethynyl}pyridine-2-carboxylic acid]",100 to 1000
11,"COc1ccc(S(=O)(=O)Nc2cc(Br)ccc2C#Cc2ccc(C(=O)O)nc2)c2ncccc12 [Compound 182, 5-{2-[4-bromo-2-(5-methoxyquinoline-8-sulfonamido)phenyl]ethynyl}pyridine-2-carboxylic acid]",100 to 1000
12,"Cc1cc(S(=O)(=O)Nc2ccccc2C#Cc2cnc(C(=O)O)c(Cl)c2)c2ncccc2c1 [Compound 335, 3-chloro-5-{2-[2-(6-methylquinoline-8-sulfonamido)phenyl]ethynyl}pyridine-2-carboxylic acid]",1000 to 100000
13,"O=C(O)c1ccc(C#Cc2ccccc2S(=O)(=O)Nc2cccc3ccccc23)cn1 [Compound 450, 5-(2-{2-[(naphthalen-1-yl)sulfamoyl]phenyl}ethynyl)pyridine-2-carboxylic acid]",1000 to 100000
14,"COc1ccccc1-c1ccccc1CN(C=O)c1ccccc1C#Cc1ccc(C(=O)O)nc1 [Compound 189, 5-(2-{2-[N-({2′-methoxy-[1,1′-biphenyl]-2-yl}methyl)formamido]phenyl}-ethynyl)pyridine-2-carboxylic acid]",100 to 1000
15,"COc1ccc(S(=O)(=O)Nc2ccccc2C#Cc2ccc(C(=O)NC(C)C)nc2)c2ncccc12 [Compound 392, 5-[2-(5-Methoxy-quinoline-8-sulfonylamino)-phenylethynyl]-pyridine-2-carboxylic acid isopropylamide]",100 to 1000
16,"O=C(O)c1ccc(C#Cc2ccccc2NS(=O)(=O)c2cccc3cc(Cl)cnc23)cc1 [Compound 270, 4-[2-(3-Chloro-quinoline-8-sulfonyl-amino)-phenylethynyl]-benzoic acid]",100 to 1000
17,"Cc1cc(C(=O)O)ncc1C#Cc1ccccc1NS(=O)(=O)c1cccc2cccnc12 [Compound 61, 4-methyl-5-{2-[2-(quinoline-8-sulfonamido)phenyl]ethynyl}pyridine-2-carboxylic acid]",100 to 1000
18,"O=C(O)c1ccc(C#Cc2ccc(F)cc2NS(=O)(=O)c2cccc3ccccc23)cn1 [Compound 285, 5-{2-[4-fluoro-2-(naphthalene-1-sulfonamido)phenyl]ethynyl}pyridine-2-carboxylic acid]",100 to 1000
19,"O=C(O)c1ccc(C#Cc2ccccc2NS(=O)(=O)c2ccc3occc3c2)cn1 [Compound 297, 5-{2-[2-(1-benzofuran-5-sulfonamido)phenyl]ethynyl}pyridine-2-carboxylic acid]",1000 to 100000
20,"O=C(O)c1ccc(C#Cc2cccc(F)c2NS(=O)(=O)c2ccc3ccccc3c2)cc1 [Compound 32, 4-{2-[3-fluoro-2-(naphthalene-2-sulfonamido)phenyl]ethynyl}benzoic acid]",100 to 1000
21,"O=C(O)c1c(F)cc(C#Cc2ccccc2NS(=O)(=O)c2ccc3ccccc3c2)cc1F [Compound 29, 2,6-difluoro-4-{2-[2-(naphthalene-2-sulfonamido)phenyl]ethynyl}benzoic acid]",1000 to 100000
22,"COc1ccc(S(=O)(=O)Nc2ccccc2C#Cc2ccc(C(=O)O)cc2)c(Cl)c1Cl [Compound 23, 4-{2-[2-(2,3-dichloro-4-methoxybenzenesulfonamido)phenyl]-ethynyl}benzoic acid]",100 to 1000
23,"O=C(O)c1ccc(C#Cc2cc(F)ccc2NS(=O)(=O)c2cccc3ccccc23)cc1 [Compound 68, 4-{2-[5-fluoro-2-(naphthalene-1-sulfonamido)phenyl]ethynyl}benzoic acid]",100 to 1000
24,"O=CN(Cc1ccc2ccccc2c1)c1ccccc1C#Cc1ccc(C(=O)O)nc1 [Compound 115, 5-[2-(2-{N-[(naphthalen-2-yl)methyl]formamido}phenyl)ethynyl]-pyridine-2-carboxylic acid]",100 to 1000
25,"Cc1ccc2cccnc2c1S(=O)(=O)Nc1ccc(Cl)cc1C#Cc1ccc(C(=O)O)nc1 [Compound 363, 5-{2-[5-chloro-2-(7-methylquinoline-8-sulfonamido)phenyl]ethynyl}pyridine-2-carboxylic acid]",1000 to 100000
26,"Cc1cc(C#Cc2ccccc2NS(=O)(=O)c2cccc3cccnc23)cnc1C(=O)O [Compound 59, 3-methyl-5-{2-[2-(quinoline-8-sulfonamido)phenyl]ethynyl}pyridine-2-carboxylic acid]",100 to 1000
27,"COc1ccc2cccnc2c1S(=O)(=O)Nc1ccccc1C#Cc1ccc(C(=O)O)nc1 [Compound 347, 5-{2-[2-(7-methoxyquinoline-8-sulfonamido)phenyl]ethynyl}pyridine-2-carboxylic acid]",100 to 1000

# Next, values leading:
row,IC50 [nM],SMILES
1,1 to 10,"COc1cc(C(=O)O)ncc1C#Cc1ccccc1N(C=O)Cc1ccc(-c2ccccc2)cc1 [Compound 192, 5-(2-{2-[N-({[1,1′-biphenyl]-4-yl}methyl)formamido]phenyl}ethynyl)-4-methoxypyridine-2-carboxylic acid]"
2,10 to 100,"COc1ccc(S(=O)(=O)Nc2ccccc2C#Cc2cnc(C(=O)O)cc2C)c2ncccc12 [Compound 110, 5-{2-[2-(5-methoxyquinoline-8-sulfonamido)phenyl]ethynyl}-4-methylpyridine-2-carboxylic acid]"
3,10 to 100,"COc1ccc(S(=O)(=O)Nc2ccccc2C#Cc2ccc(C(=O)OCc3ccccc3)nc2)c2ncccc12 [Compound 172, benzyl 5-{2-[2-(5-methoxyquinoline-8-sulfonamido)phenyl]ethynyl}pyridine-2-carboxylate]"
4,10 to 100,"Cc1cc(C#Cc2ccccc2NS(=O)(=O)c2ccc(OC(F)(F)F)c3cccnc23)cnc1C(=O)O [Compound 382, 3-Methyl-5-[2-(5-trifluoromethoxy-quinoline-8-sulfonylamino)-phenylethynyl]-pyridine-2-carboxylic acid]"
5,10 to 100,"COc1ccc(S(=O)(=O)Nc2ccccc2C#Cc2cnc(C(=O)O)cc2Cl)c2ncccc12 [Compound 159, 4-chloro-5-{2-[2-(5-methoxyquinoline-8-sulfonamido)phenyl]ethynyl}pyridine-2-carboxylic acid]"
6,1 to 10,"COc1cc(C(=O)O)ncc1C#Cc1ccccc1NS(=O)(=O)N1CCC[C@@H]2CCCC[C@H]21 [Compound 221, 5-[2-(2-{[(4a,8a-trans)-decahydro-quinoline-1-sulfonyl]amino}phenyl)-ethynyl]-4-methoxypyridine-2-carboxylic acid]"
7,10 to 100,"Cc1ccc2cccnc2c1S(=O)(=O)Nc1ccc(Cl)cc1C#Cc1cnc(C(=O)O)c2ccccc12 [Compound 234, 4-{2-[5-chloro-2-(7-methylquinoline-8-sulfonamido)phenyl]ethynyl}isoquinoline-1-carboxylic acid]"
8,10 to 100,"O=CN(Cc1ccccc1C#Cc1ccc(C(=O)O)nc1)c1ccc2ccccc2c1 [Compound 202, 5-[2-(2-{[N-(naphthalen-2-yl)formamido]methyl}phenyl)-ethynyl]pyridine-2-carboxylic acid]"
9,1 to 10,"COc1cc(C(=O)O)ncc1C#Cc1cc(Cl)ccc1NS(=O)(=O)c1ccc(OC)c2cccnc12 [Compound 360, 5-{2-[5-chloro-2-(5-methoxyquinoline-8-sulfonamido)phenyl]ethynyl}-4-methoxypyridine-2-carboxylic acid]"
10,10 to 100,"COc1ccc(NS(=O)(=O)c2c(C)ccc3cccnc23)c(C#Cc2ccc(C(=O)O)nc2)c1 [Compound 247, 5-{2-[5-methoxy-2-(7-methylquinoline-8-sulfonamido)phenyl]ethynyl}pyridine-2-carboxylic acid]"
11,10 to 100,"O=C(O)c1ccc(C#Cc2ccccc2NS(=O)(=O)c2c(Cl)ccc3c(Cl)ccnc23)cn1 [Compound 302, 5-{2-[2-(4,7-dichloroquinoline-8-sulfonamido)phenyl]ethynyl}pyridine-2-carboxylic acid]"
